Assay results taken from publication PMC5218480 (PLoS ONE, 2017).

Test system: MV-4-11 cells
Test: Gene expression microarray analysis (Affymetrix PrimeView) and GSEA
Type: cell-based, human
Design: RFU PODN (11730768_x_at) / Fold change /veh PODN (11730768_x_at) / RFU LINC00158 (11744669_a_at) / Fold change /veh LINC00158 (11744669_a_at) / RFU DUSP10 (11751237_a_at) / Fold change /veh DUSP10 (11751237_a_at) / RFU ID3 (11757404_x_at) / Fold change /veh ID3 (11757404_x_at) / RFU PLEKHG5 (11737974_s_at) / Fold change /veh PLEKHG5 (11737974_s_at) / RFU LRRC4B (11730491_at) / Fold change /veh LRRC4B (11730491_at) / RFU GIMAP4 (11747438_a_at) / Fold change /veh GIMAP4 (11747438_a_at) / RFU KRT8 (11758183_x_at) / Fold change /veh KRT8 (11758183_x_at) / RFU CNN1 (11734310_a_at) / Fold change /veh CNN1 (11734310_a_at) / RFU VPS37D (11726825_at) / Fold change /veh VPS37D (11726825_at) / RFU C10orf10 (11716522_x_at) / Fold change /veh C10orf10 (11716522_x_at) / RFU KIR2DL2 /// KIR2DL4 /// KIR2DL5A /// KIR2DL5B /// KIR2DS1 /// KIR2DS2 /// KIR2DS3 /// KIR2DS4 /// KIR3DL3 /// KIR3DL3 /// KIR3DS1 (11738374_at) / Fold change /veh KIR2DL2 /// KIR2DL4 /// KIR2DL5A /// KIR2DL5B /// KIR2DS1 /// KIR2DS2 /// KIR2DS3 /// KIR2DS4 /// KIR3DL3 /// KIR3DL3 /// KIR3DS1 (11738374_at) / RFU C1QL1 (11718748_at) / Fold change /veh C1QL1 (11718748_at) / RFU TMPRSS4 (11747572_a_at) / Fold change /veh TMPRSS4 (11747572_a_at) / RFU HAMP (11756126_x_at) / Fold change /veh HAMP (11756126_x_at) / RFU RNFT2 (11725882_a_at) / Fold change /veh RNFT2 (11725882_a_at) / RFU NR4A2 (11747474_a_at) / Fold change /veh NR4A2 (11747474_a_at) / RFU ABCC12 (11746883_a_at) / Fold change /veh ABCC12 (11746883_a_at) / RFU TMEM136 (11760407_x_at) / Fold change /veh TMEM136 (11760407_x_at) / RFU CLDN22 /// WWC2 (11732394_at) / Fold change /veh CLDN22 /// WWC2 (11732394_at) / RFU HLA-DPB1 (11760878_x_at) / Fold change /veh HLA-DPB1 (11760878_x_at) / RFU SPINT1 (11716480_a_at) / Fold change /veh SPINT1 (11716480_a_at) / RFU GAP43 (11754022_s_at) / Fold change /veh GAP43 (11754022_s_at) / RFU A4GNT (11735810_at) / Fold change /veh A4GNT (11735810_at) / RFU PRB3 (11715151_x_at) / Fold change /veh PRB3 (11715151_x_at) / RFU TUBB4B (11761932_at) / Fold change /veh TUBB4B (11761932_at) / RFU CAPN14 (11732068_a_at) / Fold change /veh CAPN14 (11732068_a_at) / RFU TMCC2 (11721928_a_at) / Fold change /veh TMCC2 (11721928_a_at) / RFU IRGQ (11745062_a_at) / Fold change /veh IRGQ (11745062_a_at) / RFU FAM174B (11720279_a_at) / Fold change /veh FAM174B (11720279_a_at) / RFU TMPRSS4 (11748680_a_at) / Fold change /veh TMPRSS4 (11748680_a_at) / RFU FAM212B (11763350_a_at) / Fold change /veh FAM212B (11763350_a_at) / RFU PLEKHG5 (11743358_a_at) / Fold change /veh PLEKHG5 (11743358_a_at) / RFU ZSCAN30 (11745921_a_at) / Fold change /veh ZSCAN30 (11745921_a_at) / RFU CMKLR1 (11741424_a_at) / Fold change /veh CMKLR1 (11741424_a_at) / RFU LOC101060620 /// MAPK8IP1 (11723275_at) / Fold change /veh LOC101060620 /// MAPK8IP1 (11723275_at) / RFU SPTSSB (11747773_x_at) / Fold change /veh SPTSSB (11747773_x_at) / RFU PRSS12 (11739890_at) / Fold change /veh PRSS12 (11739890_at) / RFU BIN1 (11741810_x_at) / Fold change /veh BIN1 (11741810_x_at) / RFU WNT11 (11732464_a_at) / Fold change /veh WNT11 (11732464_a_at) / RFU C10orf10 (11716521_a_at) / Fold change /veh C10orf10 (11716521_a_at) / RFU C5orf56 (11738089_at) / Fold change /veh C5orf56 (11738089_at) / RFU CYB561 (11721691_x_at) / Fold change /veh CYB561 (11721691_x_at) / RFU ANKRD19P (11752326_a_at) / Fold change /veh ANKRD19P (11752326_a_at) / RFU OR2T12 /// OR2T33 /// OR2T8 (11738714_s_at) / Fold change /veh OR2T12 /// OR2T33 /// OR2T8 (11738714_s_at) / RFU VCAN (11748164_a_at) / Fold change /veh VCAN (11748164_a_at) / RFU JSRP1 (11732532_at) / Fold change /veh JSRP1 (11732532_at) / RFU KRTAP10-11 (11738290_x_at) / Fold change /veh KRTAP10-11 (11738290_x_at) / RFU MYO3A (11730013_a_at) / Fold change /veh MYO3A (11730013_a_at) / RFU EBF3 (11725865_a_at) / Fold change /veh EBF3 (11725865_a_at) / RFU CAMK2N1 (11719241_x_at) / Fold change /veh CAMK2N1 (11719241_x_at) / RFU C5orf56 (11738088_a_at) / Fold change /veh C5orf56 (11738088_a_at) / RFU OLFML3 (11715873_a_at) / Fold change /veh OLFML3 (11715873_a_at) / RFU LOC100653217 /// NTM (11731650_a_at) / Fold change /veh LOC100653217 /// NTM (11731650_a_at) / RFU MAPK11 (11762145_a_at) / Fold change /veh MAPK11 (11762145_a_at) / RFU FIZ1 (11724087_x_at) / Fold change /veh FIZ1 (11724087_x_at) / RFU OASL (11726364_x_at) / Fold change /veh OASL (11726364_x_at) / RFU SOX15 (11748057_x_at) / Fold change /veh SOX15 (11748057_x_at) / RFU CD79A (11719716_a_at) / Fold change /veh CD79A (11719716_a_at) / RFU HIST1H1D (11736915_at) / Fold change /veh HIST1H1D (11736915_at) / RFU CASKIN2 (11723855_a_at) / Fold change /veh CASKIN2 (11723855_a_at) / RFU LOC730098 (11760151_x_at) / Fold change /veh LOC730098 (11760151_x_at) / RFU OR4N2 (11742367_at) / Fold change /veh OR4N2 (11742367_at) / RFU PRRT2 (11749266_a_at) / Fold change /veh PRRT2 (11749266_a_at) / RFU SNX32 (11753110_a_at) / Fold change /veh SNX32 (11753110_a_at) / RFU CDHR5 (11726645_a_at) / Fold change /veh CDHR5 (11726645_a_at) / RFU RCAN1 (11760418_a_at) / Fold change /veh RCAN1 (11760418_a_at) / RFU FAM167A (11723789_a_at) / Fold change /veh FAM167A (11723789_a_at) / RFU FAM26E (11764081_at) / Fold change /veh FAM26E (11764081_at) / RFU ISYNA1 (11749810_s_at) / Fold change /veh ISYNA1 (11749810_s_at) / RFU ACY1 (11761880_at) / Fold change /veh ACY1 (11761880_at) / RFU 11764098_at / Fold change /veh 11764098_at / RFU SAMD14 (11745864_x_at) / Fold change /veh SAMD14 (11745864_x_at) / RFU NPB (11741838_a_at) / Fold change /veh NPB (11741838_a_at) / RFU TMPRSS6 (11731388_a_at) / Fold change /veh TMPRSS6 (11731388_a_at) / RFU KRTAP10-2 (11738614_at) / Fold change /veh KRTAP10-2 (11738614_at) / RFU ARHGAP8 /// PRR5-ARHGAP8 (11727945_x_at) / Fold change /veh ARHGAP8 /// PRR5-ARHGAP8 (11727945_x_at) / RFU KRTAP5-7 /// NADSYN1 (11734609_at) / Fold change /veh KRTAP5-7 /// NADSYN1 (11734609_at) / RFU RASL12 (11751679_a_at) / Fold change /veh RASL12 (11751679_a_at) / RFU CDKN2B (11736163_a_at) / Fold change /veh CDKN2B (11736163_a_at) / RFU PRF1 (11729649_at) / Fold change /veh PRF1 (11729649_at) / RFU, ZNF638 /// ZNF638-IT1 / Fold change vs veh, ZNF638 /// ZNF638-IT1 / RFU, PANK3 / Fold change vs veh, PANK3 / RFU, SH3YL1 / Fold change vs veh, SH3YL1 / RFU, ZEB2 / Fold change vs veh, ZEB2 / RFU, NRIP1 / Fold change vs veh, NRIP1 / RFU, PTTG1IP / Fold change vs veh, PTTG1IP / RFU, CAPN2 / Fold change vs veh, CAPN2 / RFU, MED14 / Fold change vs veh, MED14 / RFU, SNORA58 / Fold change vs veh, SNORA58 / RFU, C1orf63 / Fold change vs veh, C1orf63 / RFU, LRRFIP1 / Fold change vs veh, LRRFIP1 / RFU, NDUFAF7 / Fold change vs veh, NDUFAF7 / RFU, SLC12A2 / Fold change vs veh, SLC12A2 / RFU, IBTK / Fold change vs veh, IBTK / RFU, ESF1 / Fold change vs veh, ESF1 / Fold change vs veh, TMEM50B / RFU, TAOK1 / Fold change vs veh, TAOK1 / RFU, ACBD3 / Fold change vs veh, ACBD3 / RFU, TMA16 / Fold change vs veh, TMA16 / RFU, RWDD3 / Fold change vs veh, RWDD3 / RFU, BCAT1 / Fold change vs veh, BCAT1 / RFU, EDEM3 / Fold change vs veh, EDEM3 / RFU, TMEM33 / Fold change vs veh, TMEM33 / RFU, WDR75 / Fold change vs veh, WDR75 / RFU, AHCTF1 / Fold change vs veh, AHCTF1 / RFU, TFRC / Fold change vs veh, TFRC / RFU, ZDHHC17 / Fold change vs veh, ZDHHC17 / RFU, NOM1 / Fold change vs veh, NOM1 / RFU, ARL8B / Fold change vs veh, ARL8B / RFU, ZBTB11 / Fold change vs veh, ZBTB11 / RFU, TAMM41 / Fold change vs veh, TAMM41 / RFU, KIAA1704 /// LOC100996395 / Fold change vs veh, KIAA1704 /// LOC100996395 / RFU, ING1 / Fold change vs veh, ING1 / RFU, TRMT61B / Fold change vs veh, TRMT61B / RFU, FUBP3 / Fold change vs veh, FUBP3 / RFU, TP53 / Fold change vs veh, TP53 / RFU, TNKS2 / Fold change vs veh, TNKS2 / RFU, ZFP14 / Fold change vs veh, ZFP14 / RFU, ACTR2 / Fold change vs veh, ACTR2 / RFU, PPP3R1 / Fold change vs veh, PPP3R1 / RFU, PIK3R1 / Fold change vs veh, PIK3R1 / RFU, HNRNPA1 / Fold change vs veh, HNRNPA1 / RFU, RNF170 / Fold change vs veh, RNF170 / RFU, ZNF28 / Fold change vs veh, ZNF28 / RFU, RNGTT / Fold change vs veh, RNGTT / RFU, OGT / Fold change vs veh, OGT / RFU, BRD1 / Fold change vs veh, BRD1 / RFU, MARS / Fold change vs veh, MARS / RFU, ZNF655 / Fold change vs veh, ZNF655 / RFU, FAHD1 / Fold change vs veh, FAHD1 / RFU, BDP1 / Fold change vs veh, BDP1 / RFU, LRRCC1 / Fold change vs veh, LRRCC1 / RFU, ARID1A / Fold change vs veh, ARID1A / RFU, ZNF146 / Fold change vs veh, ZNF146 / RFU, ZNF330 / Fold change vs veh, ZNF330 / RFU, GPN3 / Fold change vs veh, GPN3 / RFU, C9orf123 / Fold change vs veh, C9orf123 / RFU, N4BP2L2 / Fold change vs veh, N4BP2L2 / RFU, ARFIP1 / Fold change vs veh, ARFIP1 / RFU, FAM179B / Fold change vs veh, FAM179B / RFU, BCL10 / Fold change vs veh, BCL10 / RFU, UHRF1BP1L / Fold change vs veh, UHRF1BP1L / RFU, BET1 / Fold change vs veh, BET1 / RFU, CNOT2 / Fold change vs veh, CNOT2 / RFU, ZNF268 / Fold change vs veh, ZNF268 / Fold change vs veh, ZNF507 / RFU, DGCR2 / Fold change vs veh, DGCR2 / RFU, WDSUB1 / Fold change vs veh, WDSUB1 / Fold change vs veh, HSP90B1 /// MIR3652 / RFU, ADSS / Fold change vs veh, ADSS / RFU, GK / Fold change vs veh, GK / RFU, ZNF148 / Fold change vs veh, ZNF148 / RFU, TAF9 / Fold change vs veh, TAF9 / RFU, SLC1A5 / Fold change vs veh, SLC1A5 / RFU, SLMO2 / Fold change vs veh, SLMO2 / RFU, ABCC4 / Fold change vs veh, ABCC4 / RFU, LOC101060439 /// RAP1B / Fold change vs veh, LOC101060439 /// RAP1B / RFU, RFX7 / Fold change vs veh, RFX7 / RFU, GTPBP10 / Fold change vs veh, GTPBP10 / RFU, CNEP1R1 / Fold change vs veh, CNEP1R1 / RFU, BIVM-ERCC5 /// ERCC5 / Fold change vs veh, BIVM-ERCC5 /// ERCC5 / RFU, ILF3 / Fold change vs veh, ILF3 / RFU 11762660_at / Fold change /veh 11762660_at / RFU VCAN (11757783_s_at) / Fold change /veh VCAN (11757783_s_at) / RFU DDX43 (11728927_at) / Fold change /veh DDX43 (11728927_at) / RFU KRT8 (11758188_x_at) / Fold change /veh KRT8 (11758188_x_at) / RFU NKD1 (11759106_at) / Fold change /veh NKD1 (11759106_at) / RFU SRD5A1 (11742802_a_at) / Fold change /veh SRD5A1 (11742802_a_at) / RFU TPSAB1 /// TPSB2 (11721975_s_at) / Fold change /veh TPSAB1 /// TPSB2 (11721975_s_at) / RFU GSTM3 (11746129_a_at) / Fold change /veh GSTM3 (11746129_a_at) / RFU IL23R (11737362_x_at) / Fold change /veh IL23R (11737362_x_at) / RFU TMEM51 (11727254_a_at) / Fold change /veh TMEM51 (11727254_a_at) / RFU PIWIL2 (11732686_x_at) / Fold change /veh PIWIL2 (11732686_x_at) / RFU ORM1 (11744905_x_at) / Fold change /veh ORM1 (11744905_x_at) / RFU CCDC152 (11743942_at) / Fold change /veh CCDC152 (11743942_at) / RFU ECM1 (11717891_a_at) / Fold change /veh ECM1 (11717891_a_at) / RFU IL23R (11748794_a_at) / Fold change /veh IL23R (11748794_a_at) / RFU TNFAIP8L3 (11732012_x_at) / Fold change /veh TNFAIP8L3 (11732012_x_at) / RFU MBOAT4 (11741988_at) / Fold change /veh MBOAT4 (11741988_at) / RFU 11764193_at / Fold change /veh 11764193_at / RFU TMEM53 (11763286_at) / Fold change /veh TMEM53 (11763286_at) / RFU MAGEB2 (11727129_at) / Fold change /veh MAGEB2 (11727129_at) / RFU TMEM200A (11744735_a_at) / Fold change /veh TMEM200A (11744735_a_at) / RFU CCDC152 (11751479_a_at) / Fold change /veh CCDC152 (11751479_a_at) / RFU FAM211A (11726209_a_at) / Fold change /veh FAM211A (11726209_a_at) / RFU RGS16 (11746705_a_at) / Fold change /veh RGS16 (11746705_a_at) / RFU VCAN (11755009_s_at) / Fold change /veh VCAN (11755009_s_at) / RFU RHOB (11743442_s_at) / Fold change /veh RHOB (11743442_s_at) / RFU RGS16 (11720943_a_at) / Fold change /veh RGS16 (11720943_a_at) / RFU RGS16 (11720944_at) / Fold change /veh RGS16 (11720944_at) / RFU, VPS4B / Fold change vs veh, VPS4B / RFU, CREB1 / Fold change vs veh, CREB1 / RFU, DNAJC13 / Fold change vs veh, DNAJC13 / RFU, GNAQ / Fold change vs veh, GNAQ / RFU, CDK5R1 / Fold change vs veh, CDK5R1 / RFU, ZRANB3 / Fold change vs veh, ZRANB3 / RFU, CUL4A / Fold change vs veh, CUL4A / RFU, CCNY / Fold change vs veh, CCNY / RFU, UFL1 / Fold change vs veh, UFL1 / RFU, COG3 / Fold change vs veh, COG3 / RFU, DIAPH2 / Fold change vs veh, DIAPH2 / RFU, SKA2 / Fold change vs veh, SKA2 / RFU, AFF3 / Fold change vs veh, AFF3 / RFU, LMF1 / Fold change vs veh, LMF1 / RFU, IPO11 / Fold change vs veh, IPO11 / RFU, DFFB / Fold change vs veh, DFFB / RFU, FOXP1 / Fold change vs veh, FOXP1 / RFU, CARD8 / Fold change vs veh, CARD8 / RFU, STRN3 / Fold change vs veh, STRN3 / RFU, ADK / Fold change vs veh, ADK / RFU, RASSF2 / Fold change vs veh, RASSF2 / RFU, WIPF1 / Fold change vs veh, WIPF1 / RFU, LARP1B / Fold change vs veh, LARP1B / RFU, RASA1 / Fold change vs veh, RASA1 / RFU, RB1 / Fold change vs veh, RB1 / RFU, PPFIA1 / Fold change vs veh, PPFIA1 / RFU, MAT2A / Fold change vs veh, MAT2A / RFU, CCT5 / Fold change vs veh, CCT5 / RFU, WDR92 / Fold change vs veh, WDR92 / RFU, CUX1 / Fold change vs veh, CUX1 / RFU, TTC7A / Fold change vs veh, TTC7A / RFU, TMEM135 / Fold change vs veh, TMEM135 / RFU, DEPTOR / Fold change vs veh, DEPTOR / RFU, CPM / Fold change vs veh, CPM / RFU, DNAJB6 / Fold change vs veh, DNAJB6 / RFU, CACNA2D3 / Fold change vs veh, CACNA2D3 / RFU, DTX4 / Fold change vs veh, DTX4 / RFU, TFCP2 / Fold change vs veh, TFCP2 / RFU, GMCL1 /// GMCL1P1 / Fold change vs veh, GMCL1 /// GMCL1P1 / RFU, AEBP2 / Fold change vs veh, AEBP2 / RFU, SNHG1 /// SNORD22 /// SNORD25 /// SNORD26 /// SNORD27 /// SNORD28 /// SNORD29 /// SNORD31 / Fold change vs veh, SNHG1 /// SNORD22 /// SNORD25 /// SNORD26 /// SNORD27 /// SNORD28 /// SNORD29 /// SNORD31 / Fold change (Aza/veh), C12orf56 (ProbeSet 11735607_a_at) / Fold change (ACY-1035/veh), C12orf56 (ProbeSet 11735607_a_at) / Fold change (Aza/veh), FGFR1OP (ProbeSet 11751329_s_at) / Fold change (ACY-1035/veh), FGFR1OP (ProbeSet 11751329_s_at) / Fold change (Aza/veh), VPS36 (ProbeSet 11739960_a_at) / Fold change (ACY-1035/veh), VPS36 (ProbeSet 11739960_a_at) / RFU SYPL1 (11715823_x_at) / Fold change /veh SYPL1 (11715823_x_at) / RFU IGFBP7 (11715501_s_at) / Fold change /veh IGFBP7 (11715501_s_at) / RFU REEP3 (11722064_at) / Fold change /veh REEP3 (11722064_at) / RFU IGLL1 (11728026_x_at) / Fold change /veh IGLL1 (11728026_x_at): dose or concentration left out as unconfirmed
Conditions: ProbeSet 11764057_s_at; LIST B

For `Nc1ccc(-c2cccs2)cc1NC(=O)c1ccc2c(c1)cc(C1CC1)n2CCN1CCOCC1` [ACY-1035], the “RFU, C1orf63” value was 108.16 RFU.
